{"source": "patent US20260151367A1", "about": "“KIT TO PROMOTE DEVELOPMENTAL MYELINATION” (SOCIÉTÉ DES PRODUITS NESTLÉ S.A., priority 2022, published 2026)", "molecules": {"B1": {"name": "α-lactalbumin: whey protein of 123 amino acids and 4 disulfide bridges, molecular weight 14.2K Daltons (protein, UniProt P00711 20-142, looked up)", "Alpha-lactalbumin": "EQLTKCEVFRELKDLKGYGGVSLPEWVCTTFHTSGYDTQAIVQNNDSTEYGLFQINNKIWCKDDQNPHSSNICNISCDKFLDDDLTDDIMCVKKILDKVGINYWLAHKALCSEKLDQWLCEKL"}}, "key": {"[1]": {"test_system": "myelin water fraction (MWF)", "test": "Random forest regression with feature selection for nutrients across ages", "assay_type": "in vivo, human", "conditions": "listed in order of average importance after log Age", "excerpt": "(§1) A linear model, like, was fitted to the dataset, all ages included, for each nutrient. Linear models with significant and positive coefficients for the nutrient intake terms were considered as indicative of a linear positive correlation with myelin. The myelin water fraction was Box Cox transformed to make it more symmetric. In addition, to account for possibly non-linear associations and for correlations between the nutrients, we performed a regression model using a random forest and used a feature selection algorithm for finding all relevant variables.\nFIG. 2 compares the values of the transformed MWF with the values predicted by the random forest, on a test set."}, "[2]": {"test_system": "myelin water fraction (MWF)", "test": "Linear model of myelin versus nutrient intake, all ages included", "assay_type": "in vivo, human", "conditions": "for association with myelin levels in age-adjusted models across age windows: all ages, linear model; for nutIntake*logAge estimate / nutIntake estimate: linear model across ages, Box Cox transformed MWF; for nutIntake*logAge estimate: coefficient of the intake x log age interaction term; for nutIntake estimate: coefficient of the nutrient intake term", "protocol": "The inventors have investigated the developmental dynamics of nutrient-myelin interactions from infancy to early childhood, using myelin imaging as a marker for brain maturation. Brain neuroimaging and infant nutritional intake information were analyzed from 293 children from a longitudinal cohort study in the US. A sliding window approach was used to investigate the relationship between the nutrient intake and brain region myelination over a continuous set of age windows.\nFor inclusion in the analysis of the present study, 293 children between 6 months and 60 months of age were selected who met the following criteria: 1. Singleton full-term (>37 weeks) pregnancy; 2. Uncomplicated pregnancy (i.e., no reports of pre-eclampsia, gestational hypertension or gestation diabetes mellitus, GDM); 3. No reports of abnormalities on fetal ultrasound; 4. Infant 5 minute APGAR scores ≥8; 5. Infant birth weight greater than 1500 g; 6. No reported history of neurological trauma in the child; 7. No reported sibling or parental psychiatric history, including autism; and 8. No reports of major depressive disorder requiring medication in the mother during pregnancy or in the 6 months prior to becoming pregnant. In addition, children had to have a successful MRI scan and time-matched nutrition intake information for at least one 24-hour period within a week of the MRI.\nFrom the acquired mcDESPOT data, the myelin water fraction (MWF) was calculated using a processing pipeline that includes linear alignment of the SPGR, IR-SPGR, and bSSFP images to account for subtle intra-scan head movement, non-parenchyma voxel removal, and correction of flip angle errors and off-resonance inhomogeneities using DESPOT1-HIFI and DESPOT2-FM. A 3-pool tissue model was fit to the multi-angle SPGR and bSSFP data to estimate the MWF, a surrogate and non-invasive measure of myelin content. The MWF images (maps) were then non-linearly aligned to a common analysis space in approximate MNI space using a previously described multi-step approach that first aligns the subject's high flip angle T1 weighted SPGR image to one of 14 age-specific templates and then to an overall study-specific template using non-linear 3D deformation, ANTS. The calculated transformation matrices are then applied to the quantitative MWF maps.\nNutrient intake data was collected through the Automated Self-Administered 24-hour dietary assessment tool (ASA-24). The average daily nutrient intake per scan age was calculated, resulting in 293 observations with 88 nutrients. Values for amino acids and phospholipids, including sphingomyelin, were retrieved from the relevant United States Department of Agriculture (USDA) databases. The USDA choline database contains the values of free choline, glycerophosphocholine, phosphocholine, phosphatidylcholine and sphingomyelin for about 630 foods. […] The oligosaccharides 3′SL and 6′SL are only found in milk products, values of 114 and 23 mg/100 g were used for their respective concentrations in cow's milk. For the estimation of oligofructose, the inventors based their calculations on Moshfegh et al. J. Nutr. 1999; 129(7 Suppl): 1407s-11s. We then mapped the foods reported in ASA-24 to the corresponding items in the USDA database and calculated the daily totals.\nas §1"}, "[3]": {"test_system": "myelination", "conditions": "potentially via a reduction in sialylated binding targets for the myelin associated glycoprotein; cited from earlier work"}}}
{"molecule": "CC(=O)N[C@H]1[C@H]([C@H](O)[C@H](O)CO)O[C@@](O[C@H]2[C@@H](O)[C@@H](CO)O[C@@H](O[C@H]3[C@H](O)[C@@H](O)C(O)O[C@@H]3CO)[C@@H]2O)(C(=O)O)C[C@@H]1O", "note": "(stereo partly shown) [3′SL, 3′-sialyllactose]", "values": [{"measurement": "variables selected by the random forest model, sorted by average importance", "setting": "[1]", "result": "selected by the random forest model"}, {"measurement": "association with myelin levels in age-adjusted models across age windows", "setting": "[2]", "result": "linked with higher myelin levels"}, {"measurement": "nutIntake*logAge estimate", "setting": "[2]", "result": 0.000}, {"measurement": "nutIntake estimate", "setting": "[2]", "result": 0.002}]}
{"molecule": "CC(=O)N[C@H]1[C@H]([C@H](O)[C@H](O)CO)O[C@@](OC[C@H]2O[C@@H](O[C@H]3[C@H](O)[C@@H](O)[C@H](O)O[C@@H]3CO)[C@H](O)[C@@H](O)[C@H]2O)(C(=O)O)C[C@@H]1O", "note": "[6′SL, 6′-sialyllactose]", "values": [{"measurement": "association with myelin levels in age-adjusted models across age windows", "setting": "[2]", "result": "linked with higher myelin levels"}, {"measurement": "nutIntake*logAge estimate", "setting": "[2]", "result": "−0.001"}, {"measurement": "nutIntake estimate", "setting": "[2]", "result": 0.009}, {"measurement": "impact on myelination in a preclinical study", "setting": "[3]", "result": "impact myelination"}]}
{"molecule": "[Ca+2]", "note": "[Calcium]", "values": [{"measurement": "variables selected by the random forest model, sorted by average importance", "setting": "[1]", "result": "selected by the random forest model"}]}
{"molecule": "CC1=C(/C=C/C(C)=C/C=C/C(C)=C/C=C/C=C(C)/C=C/C=C(C)/C=C/C2=C(C)CCCC2(C)C)C(C)(C)CCC1", "note": "[Carotene, beta]", "values": [{"measurement": "variables selected by the random forest model, sorted by average importance", "setting": "[1]", "result": "selected by the random forest model"}]}
{"molecule": "CC[C@H](C)[C@H](N)C(=O)O", "note": "[Isoleucine]", "values": [{"measurement": "variables selected by the random forest model, sorted by average importance", "setting": "[1]", "result": "selected by the random forest model"}]}
{"molecule": "NCCCC[C@H](N)C(=O)O", "note": "[Lysine]", "values": [{"measurement": "association with myelin levels in age-adjusted models across age windows", "setting": "[2]", "result": "linked with higher myelin levels"}, {"measurement": "nutIntake*logAge estimate", "setting": "[2]", "result": "−0.005"}, {"measurement": "nutIntake estimate", "setting": "[2]", "result": 0.033}]}
{"molecule": "CSCC[C@H](N)C(=O)O", "note": "[Methionine]", "values": [{"measurement": "variables selected by the random forest model, sorted by average importance", "setting": "[1]", "result": "selected by the random forest model"}]}
{"molecule": "[P]", "note": "[Phosphorus]", "values": [{"measurement": "variables selected by the random forest model, sorted by average importance", "setting": "[1]", "result": "selected by the random forest model"}]}
{"molecule": "N[C@@H](CO)C(=O)O", "note": "[Serine]", "values": [{"measurement": "variables selected by the random forest model, sorted by average importance", "setting": "[1]", "result": "selected by the random forest model"}]}
{"molecule": "Octadecadienoic acid [Octadecadienoic (Linoleic, 18:2)]", "values": [{"measurement": "variables selected by the random forest model, sorted by average importance", "setting": "[1]", "result": "selected by the random forest model"}]}
{"molecule": "Phosphatidylcholine", "values": [{"measurement": "variables selected by the random forest model, sorted by average importance", "setting": "[1]", "result": "selected by the random forest model"}]}
{"molecule": "Phosphatidylinositol", "values": [{"measurement": "variables selected by the random forest model, sorted by average importance", "setting": "[1]", "result": "selected by the random forest model"}]}
{"molecule": "Phosphatidylserine", "values": [{"measurement": "variables selected by the random forest model, sorted by average importance", "setting": "[1]", "result": "selected by the random forest model"}]}
{"molecule": "Sphingomyelin", "values": [{"measurement": "variables selected by the random forest model, sorted by average importance", "setting": "[1]", "result": "selected by the random forest model"}]}
{"molecule": "B1", "values": [{"measurement": "association with myelin levels in age-adjusted models across age windows", "setting": "[2]", "result": "linked with higher myelin levels"}, {"measurement": "nutIntake*logAge estimate", "setting": "[2]", "result": "−0.014"}, {"measurement": "nutIntake estimate", "setting": "[2]", "result": 0.097}]}
